Among the data in ChEMBL document CHEMBL1255447, “Efflux pumps, OprD porin, AmpC beta-lactamase, and multiresistance in Pseudomonas aeruginosa isolates from cystic fibrosis patients” (2010) are MIC values, retold here.

SMILES strings stand for the structures. Converted amounts (≈) assume the structure as drawn.

One test relates to Pseudomonas aeruginosa. Description: Antimicrobial activity against Pseudomonas aeruginosa isolate 13167 from fibrosis patient by Etest. Type of test: functional.
Conditions: not given
`NCC[C@H](O)C(=O)N[C@@H]1C[C@H](N)[C@@H](O[C@H]2O[C@H](CN)[C@@H](O)[C@H](O)[C@H]2O)[C@H](O)[C@H]1O[C@H]1O[C@H](CO)[C@@H](O)[C@H](N)[C@H]1O` [AMIKACIN] returned an MIC of 64 µg/mL (≈ 109 µM).

A further test relates to Pseudomonas aeruginosa. Kind of test: microbe, parasite or virus in culture. The following applies: isolate 13120.
Description: Antimicrobial activity against Pseudomonas aeruginosa isolate 13120 from fibrosis patient by Etest
With `NCC[C@H](O)C(=O)N[C@@H]1C[C@H](N)[C@@H](O[C@H]2O[C@H](CN)[C@@H](O)[C@H](O)[C@H]2O)[C@H](O)[C@H]1O[C@H]1O[C@H](CO)[C@@H](O)[C@H](N)[C@H]1O` [AMIKACIN], the MIC is 1 µg/mL (≈ 1.71 µM).

Another test has as its system Pseudomonas aeruginosa. Description: Antimicrobial activity against Pseudomonas aeruginosa isolate 14169c from fibrosis patient by Etest.
Conditions: not given
It counts as functional.
In turn, `NCC[C@H](O)C(=O)N[C@@H]1C[C@H](N)[C@@H](O[C@H]2O[C@H](CN)[C@@H](O)[C@H](O)[C@H]2O)[C@H](O)[C@H]1O[C@H]1O[C@H](CO)[C@@H](O)[C@H](N)[C@H]1O` [AMIKACIN] gave an MIC of 32 µg/mL (≈ 54.6 µM).

Another test relates to Pseudomonas aeruginosa. Kind of test: Antimicrobial activity against Pseudomonas aeruginosa isolate 1529c from fibrosis patient by Etest.
Conditions: not given
It counts as functional.
As for `NCC[C@H](O)C(=O)N[C@@H]1C[C@H](N)[C@@H](O[C@H]2O[C@H](CN)[C@@H](O)[C@H](O)[C@H]2O)[C@H](O)[C@H]1O[C@H]1O[C@H](CO)[C@@H](O)[C@H](N)[C@H]1O` [AMIKACIN], the MIC was determined as 64 µg/mL (≈ 109 µM).

Another test deals with Pseudomonas aeruginosa. Description: Antimicrobial activity against Pseudomonas aeruginosa isolate 1530c from fibrosis patient by Etest. Type of test: functional.
Conditions: not given
Compound `NCC[C@H](O)C(=O)N[C@@H]1C[C@H](N)[C@@H](O[C@H]2O[C@H](CN)[C@@H](O)[C@H](O)[C@H]2O)[C@H](O)[C@H]1O[C@H]1O[C@H](CO)[C@@H](O)[C@H](N)[C@H]1O` [AMIKACIN] returned an MIC of 32 µg/mL (≈ 54.6 µM).

The subject of the next test is Pseudomonas aeruginosa. Description: Antimicrobial activity against Pseudomonas aeruginosa isolate 1333c from fibrosis patient by Etest.
Conditions: not given
Type of test: functional.
Turning to `NCC[C@H](O)C(=O)N[C@@H]1C[C@H](N)[C@@H](O[C@H]2O[C@H](CN)[C@@H](O)[C@H](O)[C@H]2O)[C@H](O)[C@H]1O[C@H]1O[C@H](CO)[C@@H](O)[C@H](N)[C@H]1O` [AMIKACIN], the MIC was found to be 64 µg/mL (≈ 109 µM).

Another test has as its system Pseudomonas aeruginosa. Kind of test: Antimicrobial activity against Pseudomonas aeruginosa isolate 1240 from fibrosis patient by Etest.
Conditions: not given
Type of test: functional.
For `NCC[C@H](O)C(=O)N[C@@H]1C[C@H](N)[C@@H](O[C@H]2O[C@H](CN)[C@@H](O)[C@H](O)[C@H]2O)[C@H](O)[C@H]1O[C@H]1O[C@H](CO)[C@@H](O)[C@H](N)[C@H]1O` [AMIKACIN], the MIC came to 4 µg/mL (≈ 6.83 µM).

Another test deals with Pseudomonas aeruginosa. Kind of test: Antimicrobial activity against Pseudomonas aeruginosa isolate 12142c from fibrosis patient by Etest. It counts as functional.
Conditions: not given
For the compound `NCC[C@H](O)C(=O)N[C@@H]1C[C@H](N)[C@@H](O[C@H]2O[C@H](CN)[C@@H](O)[C@H](O)[C@H]2O)[C@H](O)[C@H]1O[C@H]1O[C@H](CO)[C@@H](O)[C@H](N)[C@H]1O` [AMIKACIN], the MIC is above 64 µg/mL.

The subject of another test is Pseudomonas aeruginosa. Description: Antimicrobial activity against Pseudomonas aeruginosa isolate 1253 from fibrosis patient by Etest. Type of test: functional.
Conditions: not given
Turning to `NCC[C@H](O)C(=O)N[C@@H]1C[C@H](N)[C@@H](O[C@H]2O[C@H](CN)[C@@H](O)[C@H](O)[C@H]2O)[C@H](O)[C@H]1O[C@H]1O[C@H](CO)[C@@H](O)[C@H](N)[C@H]1O` [AMIKACIN], the MIC was determined as 32 µg/mL (≈ 54.6 µM).

A further test concerns Pseudomonas aeruginosa. Description: Antimicrobial activity against Pseudomonas aeruginosa isolate 1248c from fibrosis patient by Etest.
Conditions: not given
Type of test: functional.
With `NCC[C@H](O)C(=O)N[C@@H]1C[C@H](N)[C@@H](O[C@H]2O[C@H](CN)[C@@H](O)[C@H](O)[C@H]2O)[C@H](O)[C@H]1O[C@H]1O[C@H](CO)[C@@H](O)[C@H](N)[C@H]1O` [AMIKACIN], the MIC is above 64 µg/mL.

The next test concerns Pseudomonas aeruginosa. Description: Antimicrobial activity against Pseudomonas aeruginosa isolate 1693c from fibrosis patient by Etest. It counts as functional.
Conditions: not given
`NCC[C@H](O)C(=O)N[C@@H]1C[C@H](N)[C@@H](O[C@H]2O[C@H](CN)[C@@H](O)[C@H](O)[C@H]2O)[C@H](O)[C@H]1O[C@H]1O[C@H](CO)[C@@H](O)[C@H](N)[C@H]1O` [AMIKACIN]: the MIC amounted to 1 µg/mL (≈ 1.71 µM).

The next test deals with Pseudomonas aeruginosa. Description: Antimicrobial activity against Pseudomonas aeruginosa isolate 1495c from fibrosis patient by Etest. It counts as functional.
Conditions: not given
Take `NCC[C@H](O)C(=O)N[C@@H]1C[C@H](N)[C@@H](O[C@H]2O[C@H](CN)[C@@H](O)[C@H](O)[C@H]2O)[C@H](O)[C@H]1O[C@H]1O[C@H](CO)[C@@H](O)[C@H](N)[C@H]1O` [AMIKACIN]: the MIC is above 64 µg/mL.

In another test the test system is Pseudomonas aeruginosa. Kind of test: Antimicrobial activity against Pseudomonas aeruginosa isolate 15107 from fibrosis patient by Etest. Type of test: functional.
Conditions: not given
Compound `NCC[C@H](O)C(=O)N[C@@H]1C[C@H](N)[C@@H](O[C@H]2O[C@H](CN)[C@@H](O)[C@H](O)[C@H]2O)[C@H](O)[C@H]1O[C@H]1O[C@H](CO)[C@@H](O)[C@H](N)[C@H]1O` [AMIKACIN] registered an MIC above 64 µg/mL.

Another test has as its system Pseudomonas aeruginosa. Kind of test: Antimicrobial activity against Pseudomonas aeruginosa isolate 1665 from fibrosis patient by Etest.
Conditions: not given
Type of test: functional.
The compound `NCC[C@H](O)C(=O)N[C@@H]1C[C@H](N)[C@@H](O[C@H]2O[C@H](CN)[C@@H](O)[C@H](O)[C@H]2O)[C@H](O)[C@H]1O[C@H]1O[C@H](CO)[C@@H](O)[C@H](N)[C@H]1O` [AMIKACIN] gave an MIC above 64 µg/mL.

A further test concerns Pseudomonas aeruginosa. Description: Antimicrobial activity against Pseudomonas aeruginosa R70 Etest.
Conditions: not given
Type of test: functional.
Compound `NCC[C@H](O)C(=O)N[C@@H]1C[C@H](N)[C@@H](O[C@H]2O[C@H](CN)[C@@H](O)[C@H](O)[C@H]2O)[C@H](O)[C@H]1O[C@H]1O[C@H](CO)[C@@H](O)[C@H](N)[C@H]1O` [AMIKACIN] came in with an MIC of 1 µg/mL (≈ 1.71 µM).

The subject of another test is Pseudomonas aeruginosa. Description: Antimicrobial activity against Pseudomonas aeruginosa AHP Etest.
Conditions: not given
Type of test: functional.
`NCC[C@H](O)C(=O)N[C@@H]1C[C@H](N)[C@@H](O[C@H]2O[C@H](CN)[C@@H](O)[C@H](O)[C@H]2O)[C@H](O)[C@H]1O[C@H]1O[C@H](CO)[C@@H](O)[C@H](N)[C@H]1O` [AMIKACIN] registered an MIC of at most 0.5 µg/mL.
